Data as given in patent US20240246964A1 (Arbutus Biopharma Corporation, priority 2021, published 2024).

The compounds below were run against human PD-L1 (Homo sapiens (Human), UniProt Q9NZQ7) (assay: T cell activation luciferase reporter cell culture system (T Cell Activation Assay)). Details: luciferase reporter assay; PD-L1 aAPC/CHO-K1 cells with PD-1 effector Jurkat T cells.
Format: cell-based

human PD-L1, sequence (Q9NZQ7 19-290): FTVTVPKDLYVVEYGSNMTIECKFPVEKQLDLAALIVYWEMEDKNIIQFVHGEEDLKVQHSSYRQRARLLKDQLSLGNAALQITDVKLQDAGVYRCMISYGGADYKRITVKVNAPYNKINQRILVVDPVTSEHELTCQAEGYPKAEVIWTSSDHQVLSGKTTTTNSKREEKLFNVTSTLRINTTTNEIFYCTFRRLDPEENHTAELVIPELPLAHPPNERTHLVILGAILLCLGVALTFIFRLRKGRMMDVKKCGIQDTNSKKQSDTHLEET

EC50 [nM] | Compound
22.4 | COc1nc(-c2ccnc(-c3cccc4c3CC[C@@H]4Oc3nc(OC)c(CNC4CCOCC4)cc3C(F)(F)F)c2Cl)ccc1CNC[C@@H]1CCC(=O)N1 [Example 608, (S)-5-((((3′-Chloro-6-methoxy-2′-((S)-1-((6-methoxy-5-(((tetrahydro-2H-pyran-4-yl)amino)methyl)-3-(trifluoromethyl)pyridin-2-yl)oxy)-2,3-dihydro-1H-inden-4-yl)-[2,4′-bipyridin]-5-yl)methyl)amino)methyl)pyrrolidin-2-one]
26.5 | COc1cc(-c2nccc(-c3cccc(-c4ccc(CN5CC6(CNC(=O)C6)C5)c(OC)n4)c3Cl)c2Cl)ccc1CN1CC(C)(O)C1 [Example 498, 2-((6-(2-Chloro-3-(3-chloro-2-(4-((3-hydroxy-3-methylazetidin-1-yl)methyl)-3-methoxyphenyl)pyridin-4-yl)phenyl)-2-methoxypyridin-3-yl)methyl)-2,6-diazaspiro[3.4]octan-7-one]
≥ 10000 | CCOc1cc(-c2nccc(-c3cccc(-c4ccc(CNC5CCN(C(C)=O)CC5)c(OC)n4)c3Cl)c2Cl)cn2nc(CN[C@H]3CC[C@H](O)CC3)nc12 [Example 583, 1-(4-(((6-(2-Chloro-3-(3-chloro-2-(8-ethoxy-2-((((1r,4r)-4-hydroxycyclohexyl)amino)methyl)-[1,2,4]triazolo[1,5-a]pyridin-6-yl)pyridin-4-yl)phenyl)-2-methoxypyridin-3-yl)methyl)amino)piperidin-1-yl)ethan-1-one]
29.1 | COc1cc(-c2nccc(-c3cccc(-c4ccc(CN5CC6(CNC(=O)C6)C5)c(OC)n4)c3Cl)c2Cl)ccc1CN[C@H]1C[C@](C)(O)C1 [Example 496, 2-((6-(2-Chloro-3-(3-chloro-2-(4-((((1r,3r)-3-hydroxy-3-methylcyclobutyl)amino)methyl)-3-methoxyphenyl)pyridin-4-yl)phenyl)-2-methoxypyridin-3-yl)methyl)-2,6-diazaspiro[3.4]octan-7-one]
14.4 | COc1nc(-c2ccnc(-c3cccc4c3CC[C@@H]4Oc3nc(OC)c(CNC4CCN(C(C)=O)CC4)cc3C(F)(F)F)c2Cl)ccc1CNC[C@@H]1CCC(=O)N1 [Example 527, (S)-5-((((2′-((S)-1-((5-(((1-acetylpiperidin-4-yl)amino)methyl)-6-methoxy-3-(trifluoromethyl)pyridin-2-yl)oxy)-2,3-dihydro-1H-inden-4-yl)-3′-chloro-6-methoxy-[2,4′-bipyridin]-5-yl)methyl)amino)methyl)pyrrolidin-2-one]
5.68 | CNCc1ccc(C(=O)Nc2cccc(-c3ccnc(-c4ccc(CNC[C@@H]5CCC(=O)N5)c(OC)c4)c3Cl)c2Cl)nc1 [Example 751, (S)—N-(2-Chloro-3-(3-chloro-2-(3-methoxy-4-((((5-oxopyrrolidin-2-yl)methyl)amino)methyl)phenyl)pyridin-4-yl)phenyl)-5-((methylamino)methyl)picolinamide]
234 | COc1cc(-c2nccc(-c3cccc(NC(=O)c4ccc(CNC5CCN(C(C)=O)CC5)cn4)c3Cl)c2Cl)ccc1CNC1CCN(C(C)=O)CC1 [Example 673, 5-(((1-Acetylpiperidin-4-yl)amino)methyl)-N-(3-(2-(4-(((1-acetylpiperidin-4-yl)amino)methyl)-3-methoxyphenyl)-3-chloropyridin-4-yl)-2-chlorophenyl)picolinamide]

The next lines start with the compound.

Compound | EC50 [nM]
COc1cc(-c2nccc(-c3cccc4c3CC[C@@H]4Nc3nc(OC)c(CN4CC5(C4)CN(C(C)=O)C5)nc3C(F)(F)F)c2Cl)ccc1CN1CC2(C1)CN(C(C)=O)C2 [Example 367, (S)-1-(6-((5-((4-(2-(4-((6-Acetyl-2,6-diazaspiro[3.3]heptan-2-yl)methyl)-3-methoxyphenyl)-3-chloropyridin-4-yl)-2,3-dihydro-1H-inden-1-yl)amino)-3-methoxy-6-(trifluoromethyl)pyrazin-2-yl)methyl)-2,6-diazaspiro[3.3]heptan-2-yl)ethan-1-one] | 412
COc1cc(-c2nccc(-c3cccc(-c4ccc(CNC[C@@H]5CCC(=O)N5)c(OC)n4)c3Cl)c2Cl)ccc1CNC[C@@H]1CCO1 [Cmpd 122, (S)-5-((((6-(2-chloro-3-(3-chloro-2-(3-methoxy-4-(((((S)-oxetan-2-yl)methyl)amino)methyl)phenyl)pyridin-4-yl)phenyl)-2-methoxypyridin-3-yl)methyl)amino)methyl)pyrrolidin-2-one] | 55.7
COC(=O)N1CCC(NCc2ccc(-c3nccc(-c4cccc(-c5ccc(CNC6CCN(C(=O)OC)CC6)c(OC)n5)c4Cl)c3Cl)cc2OC)CC1 [Example 465, Methyl 4-(((6-(2-chloro-3-(3-chloro-2-(3-methoxy-4-(((1-(methoxycarbonyl)piperidin-4-yl)amino)methyl)phenyl)pyridin-4-yl)phenyl)-2-methoxypyridin-3-yl)methyl)amino)piperidine-1-carboxylate] | 48.3
COc1nc(-c2cccc(-c3ccnc(-c4cc(F)c5c(c4)CCN(CCCF)C5)c3Cl)c2Cl)ccc1CNC[C@@H]1CCC(=O)N1 [Cmpd 65, (S)-5-((((6-(2-chloro-3-(3-chloro-2-(8-fluoro-2-(3-fluoropropyl)-1,2,3,4-tetrahydroisoquinolin-6-yl)pyridin-4-yl)phenyl)-2-methoxypyridin-3-yl)methyl)amino)methyl)pyrrolidin-2-one] | 194
COc1nc(-c2cccc(-c3ccnc(-c4cc5c(=O)n(C)c(CN6CC(C)(O)C6)nn5c4)c3Cl)c2Cl)ccc1CNC(C)C [Example 233, 6-(3-Chloro-4-(2-chloro-3-(5-((isopropylamino)methyl)-6-methoxypyridin-2-yl)phenyl)pyridin-2-yl)-2-((3-hydroxy-3-methylazetidin-1-yl)methyl)-3-methylpyrrolo[2,1-f][1,2,4]triazin-4(3H)-one] | ≥ 10000
COc1cc(-c2nccc(-c3cccc(-c4ccc(CNC5CCN(C(C)=O)CC5)c(OC)n4)c3Cl)c2Cl)ccc1CN1CCC(O)CC1 [Example 459, 1-(4-(((6-(2-Chloro-3-(3-chloro-2-(4-((4-hydroxypiperidin-1-yl)methyl)-3-methoxyphenyl)pyridin-4-yl)phenyl)-2-methoxypyridin-3-yl)methyl)amino)piperidin-1-yl)ethan-1-one] | 33
COc1cc(-c2nccc(-c3cccc(-c4ccc(CNC[C@@H]5CCC(=O)N5)c(OC)n4)c3Cl)c2Cl)ccc1[C@H](C)N [Example 335, (S)-5-((((6-(3-(2-(4-((S)-1-Aminoethyl)-3-methoxyphenyl)-3-chloropyridin-4-yl)-2-chlorophenyl)-2-methoxypyridin-3-yl)methyl)amino)methyl)pyrrolidin-2-one] | 49.8
COc1cc(-c2nccc(-c3cccc(-c4ccc(CNC5CCN(C(C)=O)CC5)c(OC)n4)c3Cl)c2Cl)ccc1CN1CC2(CC(C(=O)O)C2)C1 [Example 243, 2-(4-(4-(3-(5-(((1-acetylpiperidin-4-yl)amino)methyl)-6-methoxypyridin-2-yl)-2-chlorophenyl)-3-chloropyridin-2-yl)-2-methoxybenzyl)-2-azaspiro[3.3]heptane-6-carboxylic acid] | 104
COc1nc(-c2cccc(-c3ccnc(-c4cc(F)c5c(c4)CCN(CC(C)(C)O)C5)c3Cl)c2Cl)ccc1CNC[C@@H]1CCC(=O)N1 [Cmpd 46, (S)-5-((((6-(2-chloro-3-(3-chloro-2-(8-fluoro-2-(2-hydroxy-2-methylpropyl)-1,2,3,4-tetrahydroisoquinolin-6-yl)pyridin-4-yl)phenyl)-2-methoxypyridin-3-yl)methyl)amino)methyl)pyrrolidin-2-one] | 171
COc1cc(-c2nccc(-c3cccc(-c4ccc(CN[C@H]5CC[C@H](OC)CC5)c(OC)n4)c3Cl)c2Cl)ccc1CNC1CCN(C(C)=O)CC1 [Example 488, 1-(4-((4-(3-Chloro-4-(2-chloro-3-(6-methoxy-5-((((1r,4r)-4-methoxycyclohexyl)amino)methyl)pyridin-2-yl)phenyl)pyridin-2-yl)-2-methoxybenzyl)amino)piperidin-1-yl)ethan-1-one] | 34
CNCc1ccc(-c2nccc(-c3cccc(-c4ccc(CNC5CCN(C(C)=O)CC5)c(OC)n4)c3Cl)c2Cl)cc1OC [Example 240, 1-(4-(((6-(2-chloro-3-(3-chloro-2-(3-methoxy-4-((methylamino)methyl)phenyl)pyridin-4-yl)phenyl)-2-methoxypyridin-3-yl)methyl)amino)piperidin-1-yl)ethan-1-one] | 29.1
COc1nc(-c2cccc(-c3ccnc(-c4cc(OC)c5nc(CN6CCC(F)(F)C6)cn5c4)c3Cl)c2Cl)ccc1CNC1CCN(C(C)=O)CC1 [Example 476, 1-(4-(((6-(2-Chloro-3-(3-chloro-2-(2-((3,3-difluoropyrrolidin-1-yl)methyl)-8-methoxyimidazo[1,2-a]pyridin-6-yl)pyridin-4-yl)phenyl)-2-methoxypyridin-3-yl)methyl)amino)piperidin-1-yl)ethan-1-one] | ≥ 10000
COc1cc(-c2nccc(-c3cccc(-c4ccc(CN5CCC(O)CC5)c(OC)n4)c3Cl)c2Cl)ccc1CNC1CCN(C(C)=O)CC1 [Example 487, 1-(4-((4-(3-Chloro-4-(2-chloro-3-(5-((4-hydroxypiperidin-1-yl)methyl)-6-methoxypyridin-2-yl)phenyl)pyridin-2-yl)-2-methoxybenzyl)amino)piperidin-1-yl)ethan-1-one] | 39.9
COc1cc(-c2nccc(-c3cccc(-c4ccc(CNC[C@@H]5CCC(=O)N5)c(OC)n4)c3Cl)c2Cl)ccc1CN1CC2(CNC(=O)C2)C1 [Cmpd 88, (S)-2-(4-(3-chloro-4-(2-chloro-3-(6-methoxy-5-((((5-oxopyrrolidin-2-yl)methyl)amino)methyl)pyridin-2-yl)phenyl)pyridin-2-yl)-2-methoxybenzyl)-2,6-diazaspiro[3.4]octan-7-one] | 24.9
COc1cc(-c2nccc(-c3cccc(-c4ccc(CNC[C@@H]5CCC(=O)N5)c(OC)n4)c3Cl)c2Cl)ccc1CN1CCC(NC(C)=O)CC1 [Example 403, (S)—N-(1-(4-(3-Chloro-4-(2-chloro-3-(6-methoxy-5-((((5-oxopyrrolidin-2-yl)methyl)amino)methyl)pyridin-2-yl)phenyl)pyridin-2-yl)-2-methoxybenzyl)piperidin-4-yl)acetamide] | 18.9
